Assay results: patent US9000028B2, “Indole and indazole compounds as an inhibitor of cellular necrosis” (LG Life Sciences Ltd., priority 2007, dated 2015)
Like-named read-outs stand apart in the source and are kept apart here.

Tested on: primary hepatocytes isolated from rats
Test: Hepatocyte protective effect against substances deriving hepatocyte toxicity (WST-1 viability)
Assay type: cell-based
Details: doxorubicin, 24-48 h, read-out: EC50, cell protective effects against doxorubicin in hepatocytes
Method: Various endogenous/exogenous attacks on the cells trigger the mechanisms of cell death which is broadly classified into two types, i.e. apoptosis or necrosis. Using these cell death mechanisms, in the present experimental example, primary hepatocytes isolated from rats were treated with drugs which were clinically shown to result in serious side-effects of hepatocyte toxicity or various chemicals which derive cell death, and the compounds synthesized in the Examples were estimated for their hepatocyte protective effects, after 24-48 h. The substances used to derive hepatocyte death include CCl4, ActD, H2O2, doxorubicin, anti-Fas Ab/Actinomycin D, acetaminophen, EtOH, CdCl2, palmitate, stearate, cyclophosphamide, terfenadine, diclofenac, simvastatin, and adefovir. Primary hepatocytes were isolated using the method of Seglen PO (Experimental Cell Research 74 (1972) pp 450-454). Briefly, hepatocytes were isolated according to the two-step collagenase perfusion method, and dead cells were removed by low speed (500 rpm) centrifugation for 10 min using percoll gradient (Kreamer B L etc, In Vitro Cellular & Developmental Biology 22 (1986) pp 201-211). During this step, the viability of cells was maintained 90% or above. The cells were suspended in HepatoZYME media (Gibco BRL), and the number of cells was counted. 1.5×10^4 cells in 100 μl were placed into the collagen-coated 96-well plate (BD biocoat), and adhered on the bottom for 3-4 h.
In order to assess the hepatocyte protective effect, above adhered cells were pretreated with the Example compounds for 30 min. At this time, the concentration of the Example compounds were serially diluted by 2-fold or 3-fold over 5 steps starting from 30 uM, 10 uM or 1 uM depending on the experiments, and the final concentration of DMSO was adjusted to 0.2%. 30 min after the treatment by compounds, cells were treated by the substances deriving hepatocyte death or hepatotoxic drugs at the concentrations indicated in Table 1. After 24-48 h, the viability of cells was determined to estimate the hepatocyte protective effects. The viability of cells was determined using WST-1 (MK-400, […]) method by the absorbance at 440 nm. Hepatocyte protective effects of the Example compounds were represented by “EC50,” which was calculated from measured values. “EC50” herein means the concentration of the compound at which 50% of maximum protective effect is observed in the experiment.

Row | Compound | EC50 (Rattus norvegicus, Hepatocyte) [nM] | EC50 (rat primary hepatocytes) [nM]
1 | Cc1cc(N(C)C2CCCC2)c2[nH]c(-c3ccccn3)cc2c1 [Example 27, Cyclopentyl-methyl-[5-methyl-2-(pyridin-2-yl)-1H-indol-7-yl]-amine] | 2400 | –
2 | OCCc1cc(NC2CCCC2)c2[nH]c(-c3ccccc3)cc2c1 [Example 32, 2-[7-(Cyclopentylamino)-2-phenyl-1H-indol-5-yl]ethanol] | 130 | –
3 | Cc1cc(NC2CCN(S(C)(=O)=O)CC2)c2[nH]c(-c3ccccc3)cc2c1 [Example 91, [1-(Methanesulfonyl)piperidin-4-yl]-(5-methyl-2-phenyl-1H-indol-7-yl)-amine] | 42 | –
4 | O=S1(=O)CCN(Cc2cc(NC3CCOCC3)c3[nH]c(-c4ccccc4)cc3c2)CC1 [Example 36, (Tetrahydropyran-4-yl)[2-phenyl-5-(1,1-dioxo-thiomorpholin-4-yl)methyl-1H-indol-7-yl]amine] | 63 | –
5 | Clc1cc(NC2CCCC2)c2[nH]cc(-c3ccccc3)c2c1 [Example 80, Cyclopentyl-(5-chloro-3-phenyl-1H-indol-7-yl)-amine] | 100 | –
6 | c1ccc(Oc2cc(NC3CCOCC3)c3[nH]c(-c4ccccc4)cc3c2)cc1 [Example 62, (Tetrahydropyran-4-yl)-(5-phenoxy-2-phenyl-1H-indol-7-yl)-amine] | 110 | –
7 | CN1CCC(Nc2cc(Cl)cc3cc(-c4ccccc4)[nH]c23)CC1 [Example 52, (1-Methylpiperidin-4-yl)-(5-chloro-2-phenyl-1H-indol-7-yl)-amine] | 140 | –
8 | O=C(O)c1ccc(-c2cc3cc(Cl)cc(NC4CCCC4)c3[nH]2)cc1 [Example 138, 4-(5-Chloro-7-cyclopentylamino-1H-indol-2-yl)-benzoic acid] | 100 | –
9 | Clc1cc(NC2CCN(Cc3ccccc3)C2)c2[nH]c(-c3ccccc3)cc2c1 (stereo not drawn) [Example 51, (1-Benzylpyrrolidin-3-yl)-(5-chloro-2-phenyl-1H-indol-7-yl)-amine] | 230 | –
10 | Cc1cc(NC2CCN(C)CC2)c2[nH]c(-c3ccccc3)cc2c1 [Example 44, (1-Methylpiperidin-4-yl)-(5-methyl-2-phenyl-1H-indol-7-yl)-amine] | 170 | –
11 | c1cc(NC2CCCC2)c2[nH]c(-c3cnccn3)cc2c1 [Example 5, Cyclopentyl-[2-(pyrazin-2-yl)-1H-indol-7-yl]-amine] | 500 | –
12 | O=S1(=O)CCN(Cc2cc(NCC3CCNCC3)c3[nH]c(-c4ccccc4)cc3c2)CC1 [Example 96, [5-(1,1-Dioxo-thiomorpholin-4-yl)methyl-2-phenyl-1H-indol-7-yl]-(piperidin-4-yl)methyl-amine] | 120 | –
13 | Clc1cc(NC2CCNCC2)c2[nH]c(-c3ccccc3)cc2c1 [Example 93, (5-Chloro-2-phenyl-1H-indol-7-yl)-piperidin-4-yl-amine] | 160 | –
14 | Clc1cc(Nc2ccccn2)c2[nH]c(-c3ccccc3)cc2c1 [Example 113, (5-Chloro-2-phenyl-1H-indol-7-yl)-pyridin-2-yl-amine] | 350 | –
15 | CN(C)c1cc(Cl)cc2cc(-c3ccccc3)n(C)c12 [Example 65, Dimethyl-(5-chloro-1-methyl-2-phenyl-1H-indol-7-yl)amine] | 600 | –
16 | CC(=O)Nc1ccc(-c2cc3cc(N4CCS(=O)(=O)CC4)cc(NCC4CCOCC4)c3[nH]2)cc1 [Example 87, (Tetrahydropyran-4-yl)methyl-{5-(1,1-dioxo-thiomorpholin-4-yl)-2-[4-(acetyl)aminophenyl]-1H-indol-7-yl}-amine] | 600 | –
17 | Clc1cc(NC2CCCC2)c2[nH]c(-c3ccccc3)c(CN3CCOCC3)c2c1 [Example 67, Cyclopentyl-(5-chloro-3-(morpholin-4-yl)methyl-2-phenyl-1H-indol-7-yl)-amine] | < 130 | –
18 | CC(C)(C)OC(=O)Nc1ccc(-c2cc3cc(Cl)cc(NC4CCCC4)c3[nH]2)cc1 [Example 78, t-Butyl N-[4-[5-chloro-7-(cyclopentylamino)-1H-indol-2-yl]phenyl]carbamate] | 210 | –
19 | Clc1cc(NC2CCOCC2)c2[nH]c(-c3ccccc3)cc2c1 [Example 48, (Tetrahydropyran-4-yl)-(5-chloro-2-phenyl-1H-indol-7-yl)-amine] | 44 | –
20 | O=C(Cc1cc(NC2CCCC2)c2[nH]c(-c3ccccc3)cc2c1)N1CCCC1 [Example 119, 2-(7-Cyclopentylamino-2-phenyl-1H-indol-5-yl]-1-pyrrolidin-1-yl-ethanone] | 140 | –

Row | Compound | EC50 (Rattus norvegicus, Hepatocyte) [nM] | EC50 (rat primary hepatocytes) [nM]
21 | Cc1cc(NC2CCCC2)c2[nH]c(-c3cccc(C)n3)cc2c1 [Example 19, Cyclopentyl-[5-methyl-2-(6-methylpyridin-2-yl)-1H-indol-7-yl]-amine] | 70 | –
22 | O=C1CN(Cc2c(-c3ccccc3)[nH]c3c(NCC4CCOCC4)cc(Cl)cc23)CCN1 [Example 71, (Tetrahydropyran-4-ylmethyl)-(5-chloro-3-(2-oxo-piperazin-4-yl)methyl-2-phenyl-1H-indol-7-yl)-amine] | 254 | –
23 | Clc1cc(NCC2CCOCC2)c2[nH]cc(-c3ccccc3)c2c1 [Example 81, (Tetrahydropyran-4-yl)methyl-(5-chloro-3-phenyl-1H-indol-7-yl)-amine] | 110 | –
24 | CCN(CC)CCn1c(-c2ccccc2)cc2cc(Cl)cc(NC3CCOCC3)c21 [Example 64, (Tetrahydropyran-4-yl)-[5-chloro-1-(2-diethylaminoethyl)-2-phenyl-1H-indol-7-yl]amine] | 260 | –
25 | O=C(O)Cc1cc(NC2CCS(=O)(=O)CC2)c2[nH]c(-c3ccccc3)cc2c1 [Example 35, 2-[2-Phenyl-7-(1,1-dioxo-tetrahydro-thiopyran-4-yl)amino-1H-indol-5-yl]-acetic acid] | 630 | –
26 | O=C1CN(Cc2cc(NC3CCCC3)c3[nH]c(-c4cccc(F)c4)cc3c2)CCN1 [Example 38, Cyclopentyl-[2-(3-fluoro)phenyl-5-(2-oxo-piperazin-4-yl)methyl-1H-indol-7-yl]amine] | – | 110
27 | Cc1cc(NC2CCCCC2)c2[nH]c(-c3ccccn3)cc2c1 [Example 11, Cyclohexyl-[5-methyl-2-(pyridin-2-yl)-1H-indol-7-yl]-amine] | 100 | –
28 | CS(=O)(=O)Nc1ccc(-c2cc3cc(Cl)cc(NC4CCCC4)c3[nH]2)cc1 [Example 84, N-[4-(5-chloro-7-cyclopentylamino-1H-indol-2-yl)-phenyl]methanesulfonamide] | 90 | –
29 | CCOC(=O)c1cc(NC2CCCC2)c2[nH]c(-c3ccccc3)cc2c1 [Example 28, 7-(Cyclopentyl)amino-2-phenyl-1H-indole-5-carboxylic acid ethyl ester] | 170 | –
30 | CC(=O)N1CCC(Nc2cc(C)cc3cc(-c4ccccn4)[nH]c23)CC1 [Example 12, 1-[4-[(5-Methyl-2-(pyridin-2-yl)-1H-indol-7-yl)-amino]piperidin-1-yl]ethanone] | 400 | –
31 | CNC1CCC(Nc2cc(Cl)cc3cc(-c4ccccc4)[nH]c23)CC1 (stereo not drawn) [Example 101, N-(5-chloro-2-phenyl-1H-indol-7-yl)-N′-methyl-cyclohexane-1,4-diamine] | 80 | –
32 | COC(=O)Cc1cccc(-c2cc3cc(Cl)cc(NCC4CCOCC4)c3[nH]2)c1 [Example 130, 2-{3-[5-Chloro-7-(tetrahydropyran-4-ylmethyl)amino-1H-indol-2-yl]-phenyl}-acetic acid methyl ester] | 380 | –
33 | CC(=O)N1CCC(Nc2cc(C)cc3cc(-c4ccccc4)[nH]c23)CC1 [Example 45, 1-[-4-[(5-Methyl-2-phenyl-1H-indol-7-yl)amino]piperidin-1-yl]ethanone] | 210 | –
34 | Nc1ccc(-c2cc3cc(Cl)cc(NC4CCCC4)c3[nH]2)cc1 [Example 82, Cyclopentyl-[2-(4-aminophenyl)-5-chloro-1H-indol-7-yl]-amine] | 70 | –
35 | Cc1cc(NCC2CCCC2)c2[nH]c(-c3ccccn3)cc2c1 [Example 15, Cyclopentylmethyl-[5-methyl-2-(pyridin-2-yl)-1H-indol-7-yl]-amine] | 100 | –
36 | OCc1cc(NC2CCCC2)c2[nH]c(-c3ccccc3)cc2c1 [Example 29, Cyclopentyl-[5-hydroxymethyl-2-phenyl-1H-indol-7-yl]-amine] | 70 | –
37 | CC(Nc1cc(Cl)cc2cc(-c3ccccc3)[nH]c12)C(=O)O (stereo not drawn) [Example 112, 2-(5-Chloro-2-phenyl-1H-indol-7-yl)amino-propionic acid] | 450 | –
38 | O=S1(=O)CCN(Cc2cc(NC3CCCC3)c3[nH]c(-c4ccccc4)c(Br)c3c2)CC1 [Example 73, Cyclopentyl-(3-bromo-5-(1,1-dioxo-thiomorpholin-4-yl)methyl-2-phenyl-1H-indol-7-yl)-amine] | 120 | –
39 | Clc1cc(NC2CCOCC2)c2[nH]c(-c3ccccc3)c(CN3CCOCC3)c2c1 [Example 68, (Tetrahydropyran-4-yl)-(5-chloro-3-(morpholin-4-yl)methyl-2-phenyl-1H-indol-7-yl)-amine] | 320 | –
